Data set [1] deals with rats with unilateral 6-OHDA-induced nigral lesion. The conditions noted are these: cited from earlier work.
Data set [2] deals with olfactory bulbectomized rats. The conditions noted are these: cited from earlier work.
The target of data set [3] is tyrosinase (Homo sapiens, UniProt P14679). The conditions noted are these: cited from earlier work.
Data set [4] deals with healthy human skin explants. The conditions noted are these: healthy human skin explants exposed to UV-radiation; cited from earlier work.
The test system of data set [5] is CD-1 mice. The conditions noted are these: gp120+Tat+METH; cited from earlier work.
Data set [6] relates to human retinal pigment epithelial cells. The conditions noted are these: cited from earlier work.
Data set [7] relates to sodium selenite-induced cataracts. The conditions noted are these: in vivo; cited from earlier work.
Data set [8] has as its system human melanocytes. The conditions noted are these: cited from earlier work.
The test system of data set [9] is isolated porcine lenses. Briefly: Inhibition of oxidation of isolated porcine lenses (H2O2-induced cataract). It is filed as cell-based, pigs. The conditions noted are these: for inhibition of H2O2-induced cataract: 24 hours pre-incubation, then 600 μM H2O2 with glucose oxidase 6 hours (FIG. 2); for efficacy against H2O2-induced cataract relative to NAC: FIG. 2. On the procedure:
Protocol for inhibition of oxidation of isolated porcine lenses. Fresh eyes from pigs were obtained from Sierra For Medical Science. Lenses were first incubated in medium 199 (Sigma-Aldrich, St. Louis, Mo., USA) and 1% pig serum in a 12-well plate for two hours. At the end of the incubation, lenses were imaged under darkfield microscopy and only clear, transparent lenses were used for further experimentation. Lenses were then pre-incubated with NAC, NACA or diNACA for 24 hours. After pretreatment, lenses were transferred to media containing 600 μM H2O2 which was supplemented with glucose oxidase (GO) for maintaining a constant H2O2 level during further incubation for 6 hours [Wang G M, Raghavachari N, Lou M F. Relationship of protein-glutathione mixed disulfide and thioltransferase in H2O2-induced cataract in cultured pig lens. Exp Eye Res. 1997 May; 64(5):693-700. doi: 10.1006/exer.1996.0251. PMID: 9245898.]. At the end of the 6-hour incubation, lenses were imaged under darkfield microscopy

Data set [10] has as its system isolated rat lens. As to the kind of experiment: Inhibition of oxidation of isolated rat lenses (H2O2 cataract model). Type of data set: cell-based, Wistar rat. The conditions noted are these: 10 mM, 24 hour incubation, then 0.5 mM H2O2 24 hours; compared to control (FIG. 1). On the procedure:
Protocol for inhibition of oxidation of isolated rat lenses. Three-week old Wistar rat eyes were enucleated and lenses micro-dissected in Dulbecco's modified eagle's medium (low glucose) (DMEM-F12). Lenses were handled using only custom-made glass loops to avoid changes in transparency and placed in 1 mL DMEM with 1% penicillin/streptomycin/neomycin. Lenses were placed in a culture incubator set at 37° C./5% CO2 for one hour. Then lenses were imaged under darkfield and brightfield (grid) to ensure they are still transparent before adding vehicle (H20), 10 mM NACA (solution), or 10 mM diNACA (suspension). Lenses were then imaged at a 6-hour time period to ensure transparency was maintained, then incubated for another 18 hours, then imaged again (total 24 hour incubation). Media was collected and fresh media was added to the wells. 0.5 mM H2O2 (warmed at 37 deg C) was added and left for a further 24-hour incubation. Lenses were imaged, media collected, lenses weighed and flash frozen in tared vials and submitted for further analysis

Data set [11] deals with rats given chronic intrajugular rotenone. The conditions noted are these: chronic intrajugular rotenone in rats; cited from earlier work.
Data set [12] relates to blood cells from β-thalassemic patients. The conditions noted are these: cited from earlier work.
The test system of data set [13] is mice treated with 1-methyl-4-phenyl-1,2,3,6,-tetrahydropyridine. The conditions noted are these: MPTP-treated mice; cited from earlier work.
Data set [14] has as its system mouse model of RP. The conditions noted are these: compared with NAC; cited from earlier work.
The subject of data set [15] is J-buthionine-(S,R)-induced cataracts. The conditions noted are these: in vivo; cited from earlier work.
Data set [16] deals with β-thalassemic mice. The conditions noted are these: intra-peritoneal injection, 150 mg/kg; cited from earlier work.
Data set [17] concerns RBCs. The conditions noted are these: compared with NAC; cited from earlier work.
Data set [18] concerns the target glutamate cysteine ligase (GCL, EC 6.3.2.2). The conditions noted are these: read-out: Ki, nonallosteric competitive inhibition of GCL; cited from earlier work.
In data set [19] the test system is rabbit eyes. The conditions noted are these: in vivo; cited from earlier work.
In data set [20] the test system is patients with presbyopia. The conditions noted are these: first-in-human trial in presbyopes; cited from earlier work.
The test system of data set [21] is human cadaver lenses. The conditions noted are these: in vitro; cited from earlier work.
Data set [22] concerns corneal endothelial cells. The conditions noted are these: cell culture; cited from earlier work.
The conditions of data set [23]: humans, oral dose of 600 mg; cited from earlier work.
In data set [24] the test system is RP patients. The conditions noted are these: oral high dose NAC, cited from earlier work.
Data set [25] deals with alcohol-preferring rats. The conditions noted are these: alcohol re-access after deprivation, 60 minutes; untreated 95 to 100 mg/dL; cited from earlier work.
For data set [26], the system named is mouse model. The conditions noted are these: cited from earlier work.
Data set [27] can be described thus: Intravitreal dose study in rabbit (diNACA implant). Type of data set: in vivo, Female New Zealand White rabbits. On the procedure: Example 3: Intravitreal Dose Study in Rabbit. An IACUC-approved study evaluated intravitreally (IVT) dosed diNACA in rabbit. A standard sterile intravitreal implant containing diNACA was prepared. Female New Zealand White rabbits were administered IVT with a di-NACA implant at a dose of 0.8 mg/eye. One group of animals received IVT placebo implants without any test article. Clinical ophthalmic examinations were performed at baseline and on Days 8 and 23 post-dose. General health observations were performed daily. Body weights were recorded at baseline and prior to termination. Animals were euthanized on Day 8, 15, or 23, and tissue was collected and submitted for bioanalysis. […] Observations of conjunctival bulging, discharge, and minimal hemorrhaging were determined to be related to the injection procedure and resolved in most eyes on the day after dosing.

Data set [28] is described as follows: Oral dose study in rat (plasma levels). Type of data set: in vivo, male Sprague-Dawley rats. The conditions noted are these: oral gavage diNACA 200 milligrams per kilogram (FIG. 5). On the procedure: DiNACA as a Prodrug to NACA and NAC. Example 1: Oral Dose Study in Rat. An IACUC (Institutional Animal Care and Use Committee)-approved study evaluated diNACA dosed via oral gavage in male Sprague-Dawley rats. diNACA was weighed into individual tubes. The tubes were capped and stored at room temperature overnight. Rats were weighed. An appropriate amount of phosphate buffered saline pH 7.0 was added to each tube to achieve the desired diNACA concentration as a suspension. Blood specimens were collected from the tail vein at specified time points and processed to produce plasma. Plasma specimens were analyzed using a validated liquid chromatographic mass spectrometric procedure (King B; Vance J; Wall G M; Shoup R. Quantitation of free and total N-acetylcysteine amide and its metabolite N-acetylcysteine in human plasma using derivatization and electrospray LC-MS/MS. J Chrom B 2019; 1109:25-36.).

Data set [29] in a line: Topical ocular study in rabbit (NACA in aqueous humor, ocular tolerability). It is filed as in vivo, Dutch Belted rabbits. As for the experimental part: Example 2: Topical Ocular Study in Rabbit. An IACUC-approved study evaluated diNACA or NACA topical ocular dosing in rabbit. Ophthalmic formulations were developed containing either 1% diNACA or 1% NACA that were used for repeated topical ocular instillation to Dutch Belted rabbits. Animals were dosed four times a day at approximately 8:00 AM, 11 AM, 2 PM, and 4:00 PM on days 1-6, and once on Day 7 at approximately 8:00 AM, via bilateral topical administration. Ocular tolerability was assessed at baseline and prior to the first daily dose by means of scoring chemosis, discharge, and hyperemia (Draize scoring). Ocular tissue was harvested at necropsy (day 7). A qualified analytical LC-MS method was developed and used to quantitate NACA levels in aqueous humor (AH).

Setting [30] is: vitreous humor (FIG. 6, FIG. 7).

SMILES strings stand for the structures.

Broadly, the Ki is the dissociation constant of the complex between target and ligand, obtained from inhibition or displacement.

Sequence of tyrosinase (P14679 19-529, species assumed): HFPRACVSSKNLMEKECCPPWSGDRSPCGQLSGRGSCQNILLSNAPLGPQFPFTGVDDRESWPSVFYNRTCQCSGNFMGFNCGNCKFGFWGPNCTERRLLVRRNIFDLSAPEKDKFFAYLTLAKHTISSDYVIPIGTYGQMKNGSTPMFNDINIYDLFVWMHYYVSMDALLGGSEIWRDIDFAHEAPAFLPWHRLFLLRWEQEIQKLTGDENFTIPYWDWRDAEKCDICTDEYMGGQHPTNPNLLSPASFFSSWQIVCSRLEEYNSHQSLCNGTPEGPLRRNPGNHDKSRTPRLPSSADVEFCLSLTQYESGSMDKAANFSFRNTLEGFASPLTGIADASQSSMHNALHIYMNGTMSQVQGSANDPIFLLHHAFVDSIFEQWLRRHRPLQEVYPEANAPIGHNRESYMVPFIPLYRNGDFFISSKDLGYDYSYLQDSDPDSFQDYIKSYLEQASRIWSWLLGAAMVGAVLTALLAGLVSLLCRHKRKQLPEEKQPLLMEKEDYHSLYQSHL

As for `CC(=O)N[C@@H](CS)C(N)=O`, the amphetamine-induced rotational behaviour entry in [1] was “suppressed amphetamine-induced rotational behaviour”. Also, in data set [2], the cocaine-seeking behavior entry was “blocked cocaine-seeking behavior”. Further, the “inhibition of tyrosinase activity” value in [3] is given as “significant inhibition of tyrosinase activity was observed in a dose responsive manner”. Further, the “glutathione and NAC in skin” value in data set [4] is “increased glutathione and NAC”. The “rescue from oxidative stress (GSH, MDA)” value in [5] was “significantly rescued the animals from oxidative stress”. In addition, in data set [6], the “protection against oxidative stress-induced cellular injury and death” value was “protected against oxidative stress-induced cellular injury and death”. For the same molecule, in [7], the “inhibition of sodium selenite-induced cataracts” value is listed as “inhibit”. Also, the melanin production result in data set [8] was “inhibited melanin production”. Also, in data set [9], the “inhibition of H2O2-induced cataract” value was “dose-dependently inhibit H2O2-induced cataract” and the “efficacy against H2O2-induced cataract relative to NAC” value is “greater efficacy than NAC”. Also, the “inhibition of oxidative formation of cataract (opacity)” value in data set [10] is “inhibit oxidative formation of cataract (opacity)”. Moreover, the dopaminergic neuronal loss entry in data set [11] was “reduced dopaminergic neuronal loss”. Moreover, the “reduction of oxidative stress markers in thalassemic cells relative to NAC” value in [12] (both in vitro and in vivo) is “superior to NAC”. In data set [12] (in vitro treatment), the “reactive oxygen species (ROS) of blood cells” value is given as “reduced their reactive oxygen species (ROS)”; the “reduced GSH content of RBC, platelets and PMN leukocytes” value is given as “elevated the reduced GSH content”. Besides, in data set [13], the “reduction in striatal dopamine levels” value is “attenuated the reduction in striatal dopamine levels”. Further, in data set [14], the “improvement of visual parameters” value was “to a greater extent than NAC”. The “inhibition of buthionine sulfoximine-induced cataracts” value in data set [15] was “inhibit”. For the same molecule, the “parameters of oxidative stress” value in data set [16] was “significantly reduced the parameters of oxidative stress”. Moreover, the “BuOOH-induced intracellular oxidation, thiol depletion and hemoglobin oxidation in RBCs” value in data set [17] is listed as “superior to NAC”.

`N[C@@H](CCC(=O)N[C@@H](CS)C(=O)NCC(=O)O)C(=O)O` [GSH, c-L-glutamyl-L-cysteinyl-glycine]: the Ki in data set [18] was 2300 µM.

As for `C[N+](C)(C)CCOC(=O)CCCC[C@@H]1CCSS1` [LACE, lipoic acid choline ester], the “lens softening and deformability” value in data set [19] is “lens softening and an increase in lens deformability”; in data set [21] it was “lens softening and an increase in lens deformability”. Further, the “near visual acuity (DCNVA) improvement compared to placebo” value in data set [20] was “statistically significant”.

Regarding `CC(=O)NC(CS)C(=O)O` (stereo not drawn) [NAC, 2-acetamido-3-sulfanylpropanoic acid], the corneal endothelial survival result in [22] and in [26] was “increased corneal endothelial survival” in each case. In addition, in data set [23], the plasma half-life was 2.5 h. The “time after administration at which no NAC is detectable” value in [23] is 10 to 12 h. The “improvement of visual acuity” value in data set [24] (RP patients (n=30), p<0.05) was 2-5 letters. Further, the “aqueous humor concentrations of NAC” value in data set [24] (RP patients) is listed as “increased aqueous humor concentrations of NAC”. The “reduction of relapse-drinking blood alcohol levels” value in data set [25] was 60%. For the same molecule, in data set [9], the “inhibition of H2O2-induced cataract” value is listed as “dose-dependently inhibit H2O2-induced cataract”.

For `CC(=O)Oc1ccccc1C(=O)O` [aspirin], in [25], the “reduction of relapse-drinking blood alcohol levels” value is given as 60%.

In the case of `CC(=O)NC(CSSCC(NC(C)=O)C(N)=O)C(N)=O` [diNACA, (2R,2R′)-3,3′-disulfanediyl bis(2-acetamidopropanamide)], in [27] (IVT implant 0.8 mg/eye), the “effects on general, non-ocular health or on body weights” value was “No serious adverse effects” and the “ocular findings on the day of dosing” value is on record as “minimal ocular findings”. Besides, in data set [27] (IVT implant 0.8 mg/eye, up to Day 23), the “tolerability of IVT delivery” value was “generally well tolerated”. Also, in [27] (setting [30]), the “elution into vitreous humor from IVT implant” value is given as “eluted into the VH”; the “metabolites in vitreous humor after diNACA IVT implant” value was “presence of NACA and significant concentrations of NAC in the VH”. For the same molecule, in [28], the “bioavailability after oral administration” value is given as “bioavailable”; the “levels in rat plasma after oral diNACA” value was “significant levels of diNACA, NACA and NAC”. Further, the “inhibition of tyrosinase activity” value in data set [3] is given as “significant inhibition of tyrosinase activity was observed in a dose responsive manner”. The “glutathione and NAC in skin” value in data set [4] was “increased glutathione and NAC”. Besides, the melanin production entry in data set [8] was “inhibited melanin production”. Besides, in data set [9], the “inhibition of H2O2-induced cataract” value is listed as “dose-dependently inhibit H2O2-induced cataract” and the “efficacy against H2O2-induced cataract relative to NAC” value is given as “greater efficacy than NAC”. The “inhibition of oxidative formation of cataract (opacity)” value in [10] is recorded as “inhibit oxidative formation of cataract (opacity)”. Besides, in [29] (topical ocular dosing), the “penetration into the eye (aqueous humor)” value is listed as “penetrates the eye”. For the same molecule, in [29] (topical ocular dosing of 1% diNACA), the “prodrug delivery of NACA to aqueous humor” value is “served as a prodrug to deliver NACA to the AH”.

The record behind these values is patent US20210228509A1 (Nacuity Pharmaceuticals, Inc., priority 2020, published 2021).
